From patent US10260043B2, “Human extensively self-renewing erythroblasts (ESRE)” (UNIVERSITY OF ROCHESTER, priority 2013, dated 2019) come the findings set out here.

The test system of the assay is murine ESREs. In words: murine ESRE self-renewal supported by glucocorticoid. Format: cell-based, mouse. The note with it: as effectively as 10^−6M dexamethasone; preliminary studies. The text has this:
Other reagents necessary for improving the efficiency with which self-renewing cultures can be derived from human ESCs can be tested. This includes alternate steroids, such as fluticasone proprionate, an extremely potent glucocorticoid agent; our preliminary studies of murine ESREs indicate that doses of fluticasone as low as 10^−9M support erythroblast self-renewal as effectively as 10^−6M dexamethasone. Various lipid additives, including Excyte (Millipore) and Human LDL (Stem Cell Technology) can also be test for to optimizing support human erythroblast self-renewal.

Turning to fluticasone proprionate, the “dose that supports erythroblast self-renewal” value is on record as ≤ 10^−9 M.
